# What was measured:
# [1] = system: Mouse astrocytes; experiment: Astrosphere assay; assay type: cell-based
# Method: Mouse astrocytes were treated with conditioned media from BrM cell lines or with recombinant mouse protein including Egf (0.01 µg/ml, R&D Systems, ref. 2028-EG- 200), Mif (0.1 µg/ml, R&D Systems, ref. 1978-MF-0257CF) and Tgfα (0.1 µg/ml, R&D Systems, ref. 239-A-100) during 96 hours. After this treatment 10^4 astrocytes were seeded in low attachment plates and incubated for seven days in the presence of the same media to evaluate the ability to form astrospheres. Conditioned media from BrM cell lines were obtained after 3 days incubation of cancer cells in DMEM supplemented with 0.25 % FBS, 2 mM L-Glutamine, 100 IU/ml penicillin/streptomycin and […] amphotericin B. After being collected, the media was filtered and added to astrocytes. Conditioned media from astrospheres was collected, filtered and added to activated CD8 cells (Fig. 7P) or wild type brain slices (Fig. 7T).
# [2] = system: 482N1; experiment: cKO-Stat3 brain slice cultures with established metastases treated with 4OH-Tamoxifen (BLI); assay type: cell-based, mouse; settings: 4OH-Tamoxifen 1 µM; n≥ 4 brain slices per condition, P=0.013
# Source text: (§1) To test the functional contribution of pStat3+ RA in brain metastasis we generated GFAP-Cre/ERT2;Stat3loxP/loxP (cKO-Stat3) mice in which syngeneic brain metastatic (BrM) cells, labeled with Luciferase and Gfp (Green fluorescent protein), were intracardiacally inoculated. We used two BrM models including lung adenocarcinoma model (482N1) and melanoma model (B16/F10-BrM). These syngeneic models have gained brain tropism while retaining an aggressive extracranial metastatic potential (Valiente, M. et al. Cell 156, 1002-1016 (2014) and also as disclosed herein). […] We confirmed Stat3 depletion from RA under these experimental conditions (Fig.2). […] In order to analyze the effect of Stat3 deletion in RA once brain metastases have developed, and given the limited time available in vivo before mice reach the humane endpoint, we cultured ex vivo cKO-Stat3 brain slices containing 2 weeks old lesions grown in mice (Fig. 4A). […]
# (§2) Treatments to brain slices were given once during the experiment (4OH-Tmx, 1 µM, Sigma-Aldrich, ref. H7904; WP1066, 10 µM, Merck, ref. 573097; Doxycycline, 1 µg/ml, Sigma-Aldrich, ref. D9891; silibinin, 100 µM, Sigma-Aldrich, ref. S0417) by adding them to the media. […] Analysis of the knockdown level in H2030-BrM (Fig. 4F) was analyzed in a homogenate containing the mouse brain tissue and human cancer cells. […]
# [3] = system: B16/F10-BrM; experiment: as above; assay type: cell-based, mouse; settings: 4OH-Tamoxifen 1 µM; n≥ 8 brain slices per condition, P=0.012
# Source text: as §1, §2
# [4] = system: B16/F10-BrM; experiment: Tamoxifen-induced Stat3 depletion in reactive astrocytes of cKO-Stat3 mice inoculated with B16/F10-BrM; assay type: in vivo
# Source text: To test the functional contribution of pStat3+ RA in brain metastasis we generated GFAP-Cre/ERT2;Stat3loxP/loxP (cKO-Stat3) mice in which syngeneic brain metastatic (BrM) cells, labeled with Luciferase and Gfp (Green fluorescent protein), were intracardiacally inoculated. We used two BrM models including lung adenocarcinoma model (482N1) and melanoma model (B16/F10-BrM). […] In order to analyze the effect of Stat3 deletion in RA once brain metastases have developed, and given the limited time available in vivo before mice reach the humane endpoint, we cultured ex vivo cKO-Stat3 brain slices containing 2 weeks old lesions grown in mice (Fig. 4A).
# All animal experiments were performed in accordance with a protocol approved by the CNIO, Instituto de Salud Carlos III and Comunidad de Madrid Institutional Animal Care and Use Committee. Athymic nu/nu (Harlan), and C57BL/6 mice 4-6 weeks of age were used. cKO-Stat3 was generated by breeding GFAP-CRE/ERT2 (B6.Cg- Tg(GFAP-cre/ERT2)505Fmv/J, Jackson Labs, ref. 012849) with Stat3loxP/loxP16.
# Brain metastatic derivative of a syngeneic B16/F10 model (B16/F10-BrM) was established according to a previous protocol (Bos, P. D. et al. Nature 459, 1005-1009 (2009); Nguyen, D. X. et al. Cell 138, 51-62 (2009)). Brain colonization assays were performed injecting 100 µl of PBS into the left ventricle containing 100,000 cancer cells. Brain colonization was analyzed in vivo and ex vivo by bioluminescence imaging. Anesthetized mice (Isofluorane) were injected retro-orbitally with D-Luciferin (150 mg/kg) and imaged with an IVIS Spectrum Xenogen machine (Caliper Life Sciences). Bioluminescence analysis was performed using Living Image software, version 3. […] Silibinin in the formula of Legasil® was administered by oral gavage daily the same day cancer cells were inoculated (200mg/kg) and until mice reached the endpoint of the experiment.
# [5] = Tamoxifen treated cKO-Stat3 mice, n=7 metastases
structure (smiles),measurement,setting,value
CC/C(=C(\c1ccc(O)cc1)c1ccc(OCCN(C)C)cc1)c1ccccc1 [4OH-Tamoxifen],formation of astrospheres,"[1]; cKO-Stat3 derived astrocytes induced by the cytokine cocktail, 4OH-Tamoxifen 1µM",unable to generate astrospheres
same,growth of established metastases scored with BLI,[2],impaired the growth of established metastases
same,growth of established metastases scored with BLI,[3],impaired the growth of established metastases
C[C@H](NC(=O)/C(C#N)=C/c1cccc(Br)n1)c1ccccc1 [WP1066],formation of astrospheres,"[1]; primary astrocytes in the presence of the cytokine cocktail (Egf, Tgfα, Mif)",impairs the formation of astrospheres
CC/C(=C(\c1ccccc1)c1ccc(OCCN(C)C)cc1)c1ccccc1 [Tamoxifen],metastases of Score 0 (no pStat3 signal) in the surrounding microenvironment,[4]; Tamoxifen treated cKO-Stat3 mice,66.7%
same,metastases of Score 1 (low pStat3 signal) in the surrounding microenvironment,[4]; [5],22.2%
same,metastases of Score 2 (high pStat3 signal) in the surrounding microenvironment,[4]; [5],11.1%
same,CD74+/Iba1+ cells infiltrating metastasis,[4]; cKO-Stat3 brains treated with tamoxifen,less CD74+/lba1+ cells infiltrating metastasis

# Source: patent EP3501511A1, “MEANS FOR PREVENTING AND TREATING BRAIN METASTASIS” (Fundación Centro Nacional De Investigaciones Oncológicas …, priority 2017, dated 2019)
